Test results from patent US20260327239A1, “COMPOUNDS FOR COVALENT INHIBITION OF SHP2” (Purdue Research Foundation, priority 2023, published 2026).

Molecular target: T1, SHP2 (residues 224-528) (Homo sapiens, UniProt Q06124)
T1 construct: 4× solution of SHP2 (residues 224-528)
T1 sequence (Q06124 224-528): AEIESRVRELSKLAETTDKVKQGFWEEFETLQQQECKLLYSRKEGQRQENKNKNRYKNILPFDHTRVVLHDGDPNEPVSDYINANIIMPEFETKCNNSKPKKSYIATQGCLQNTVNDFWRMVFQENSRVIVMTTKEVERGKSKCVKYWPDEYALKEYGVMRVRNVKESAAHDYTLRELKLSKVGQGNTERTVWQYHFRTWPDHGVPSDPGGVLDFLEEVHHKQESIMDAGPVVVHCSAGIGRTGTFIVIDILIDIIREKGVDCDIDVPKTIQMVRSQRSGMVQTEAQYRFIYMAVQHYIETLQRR
Test: Kinetic characterization of SHP2 inactivation (pNPP cleavage progress curves, kobs, kinact/KI)
Assay type: biochemical
Conditions: pH 7, role: inhibitor; substrate pNPP 3 mM, 100 nM SHP2, pH 7.0, 25° C; read-out: kinact/KI (converted)
Text: Covalent inhibitors work by forming a covalent bond with a reactive functional group in the target enzyme. Consequently, the kinetics for enzyme inactivation by a covalent inhibitor is not an equilibrium process as with reversible inhibition. The potency of a reversible inhibitor can be measured by its IC50 value. Unlike reversible inhibitors, where inhibition is only concentration-dependent, covalent inhibitors show both time- and concentration-dependent target inhibition (a covalent bond formation is a time-dependent event). If sufficient time is available, covalent inhibitors can completely neutralize the target, rather than go to equilibrium. As a result, the potency and selectivity of a covalent inhibitor cannot be determined by IC50 values; instead, the rate of inactivation of the target (kinact) and the inhibition constant (KI) were determined. The bimolecular rate constant (kinact/KI), was chosen to rank the potency of covalent inhibitors (Ruddraraju et al., 2017, Molecular Biosystems 13(7), 1257-1279).
PTPs catalyze the dephosphorylation of tyrosine-phosphorylated protein substrates through a conserved mechanism that relies on a catalytic cysteine residue (Zhang, Z.-Y et al., 2003, Prog. Nucleic Acid Research Molecular Biology, 73, 171-220). This provides a mechanistic rationale for the assessment of electrophilic Michael acceptors, such as those synthesized in the present disclosure as potential covalent inhibitors of the SHP2. The enzymatic cleavage of para-nitrophenyl phosphate by SHP2 was measured over time in the presence of 100 μM inhibitor or DMSO, to determine the observed first-order rate constant (kobs). Based on kobs values, compounds were further evaluated in a dose-dependent manner to determine the second-order rate constant (kinact/KI) indicating the overall efficacy of the compounds, which was used to assess the structure-activity relationship (SAR) for the analogs of interest and design additional analogs (see Table 1). […] It has been known that modifications to the electronegativity of substituents proximal to electrophilic centers alter the reactivity of the electrophile.
The efficacy of covalent inhibitors can be broken down into the initial reversible binding of the compounds (KI), and the rate of covalent bond formation and enzyme inactivation (kinact). These two constants can be used individually, or as a ratio to determine the overall efficacy of the inhibitor's efficacy. To investigate the contribution to reversible binding compound (34) was evaluated, which lacks the carbonyl of the Michael acceptor to prevent the formation of a covalent adduct.
Inhibitors were evaluated for their ability to inhibit the reaction catalyzed by SHP2 using para-nitrophenyl phosphate (pNPP) as a substrate at pH 7 and 25° C. A 2× solution of inhibitor was diluted into DMG buffer (50 mM 3,3-dimethylglutarate pH 7.0, 1 mM EDTA, ionic strength adjusted to 150 mM using NaCl) was added to a clear flat-bottom 96-well plate (Corning Costar Assay Plate #9017), and serially diluted 1.5-fold, resulting in 100 μL volumes of varying inhibitor concentrations. To this was added a 4× solution of pNPP (12 mM) in DMG buffer. The reaction was initialized by the addition of a 4× solution of SHP2 (residues 224-528), resulting in a final solution of: inhibitor (100-0 μM), pNPP (3 mM), and SHP2 (100 nM). The plate was then monitored for a change in absorbance ab […] using a CLARIOstar^Plus plate reader (BMG Labetch) over the course of an hour. The resulting progress curves for each inhibitor were imported into Graphpad Prism 9 (GraphPad Software, San Diego, CA (USA)), and a baseline correction analysis was completed for fitting purposes. Each curve was fit to the equation Y=V0×(1−e^−kobs*t)/kobs.^[17.22] The kobs values were then plotted against inhibitor concentrations. If the resulting graph was linear, the kinact/KI value was determined by the slope of that line and the 95% confidence interval (95% CI). […]

kinact/KI: 396 M⁻¹ s⁻¹
SMILES: C=C1C(=O)[C@@]2(C(=O)N3CCN(c4ccc(I)cc4)CC3)CC(=O)C[C@@H]1C2 [Compound 37]
